In paper PMC7016953 (Cells, 2020):

Tests used:
parental HEK293 cells = assay: [Ca2+]i response in un-transfected parental HEK293 cells; assay type: cell-based, human
Protocol: (§1) All fluorometric Ca^2+ assays were done in (4-(2-hydroxyethyl)-1-piperazineethanesulfonic acid) (HEPES)-buffered saline (HBS), containing 132 mM NaCl, 6 mM KCl, 1 mM MgCl2, 1 mM CaCl2, 5.5 mM D-glucose, 10 mM HEPES, and 0.035% bovine serum albumin (BSA) adjusted to pH 7.4 with NaOH. For measurements in Ca^2+-free bath solutions, a modified HBS without CaCl2 was supplemented with 200 µM ethylene glycol-bis(β-aminoethyl ether)-N,N,N′,N′-tetraacetic acid (EGTA).
(§2) The primary compound screen and the generation of concentration response curves in HEK293 cells or in PC12 cells were performed by using a custom-made fluorescence plate imager built into a robotic liquid handling station equipped with a 96-tip multichannel head (Freedom Evo 150, Tecan, Männedorf, Switzerland) as described previously. To this end, trypsinized cell suspensions were loaded with 4 µM fluo-4/AM (Invitrogen, Thermo Fisher Scientific, Waltham, MA, U.S.A.) in cell culture medium for 30 min at 37 °C. After brief centrifugation, cells were resuspended in HBS and dispensed into black pigmented, clear-bottom 384-well plates (Greiner µClear, Frickenhausen, Germany). Plates were mounted on the imager, and fluorescence signals were recorded with a cooled Zyla 5.5 camera (Andor, Belfast, UK) through a 515 nm long pass filter. The image acquisition was controlled by the µManager software (http://micro-manager.org), and excitation with a LED array (470 nm) was synchronized by the camera trigger output. After baseline recording for about 60 s, the compound libraries or serial dilutions of activators or inhibitors were added to the cells by the liquid handling device. When inhibitory potencies were evaluated, a second pipetting step with the respective reference agonist was performed. Fluorescence intensities were calculated from image stacks for each well with ImageJ (National Institutes of Health, Bethesda, MD, U.S.A.), corrected for background signals, and normalized to the initial intensities (F/F0). […]

[1] = system: T1, heteromeric TRPC3:TRPC6 channel complexes; assay: Fluo-4 Ca2+ influx assay in HEK293 cells co-expressing TRPC3 and TRPC6; assay type: cell-based; settings: fluo-4 concentration response analysis
T1 construct: expressed in transfected cells; host or cells: HEK293, stably co-transfected
Protocol: as §1, §2

TRPC6 = system: T2, TRPC6; assay: Microfluorometric single-cell [Ca2+]i analysis, fura-2-loaded HEK cells stably expressing TRPC6; assay type: cell-based, human; settings: 50 µM, standard bath 1 mM Ca2+
T2 construct: expressed in transfected cells
Protocol: The microfluorometric single-cell [Ca^2+]i analysis was performed on an inverted epifluorescence microscope (Carl Zeiss, Jena, Germany) and calibrated as described. Cells were grown on 25 mm coverslips and loaded with 4 µM fura-2/AM (AAT Bioquest, Sunnyvale, CA, U.S.A.) in HBS containing 0.2% BSA for 30 min at 37 °C. […] Experiments were performed either in standard bath solution, containing 1 mM Ca^2+ (black lines and bars), or in a nominally Ca^2+-free HBS buffer, supplemented with 200 µM EGTA (grey lines and bars). Time courses of averaged responses (left), and statistical analysis of 6–11 independent imaging experiments with means and S.D. (right) are shown. Significant differences (p < 0.05, Student´s t-test with paired data: #, with unpaired data: *) are marked for the indicated comparisons; n.s.: difference is statistically not significant.

SMILES: C[C@@H]1CC[C@H]2[C@@H](C)C(=O)O[C@@H]3O[C@@]4(C)CC[C@@H]1[C@]32OO4 [artemisinin]
- response of un-transfected parental HEK293 cells (parental HEK293 cells; concentrations up to 50 µM): no response
- [Ca2+]i signals in parental HEK293 cells (parental HEK293 cells; single-cell analysis, followed by carbachol): does not induce [Ca^2+]i signals
- response of cells stably transfected with both TRPC3 and TRPC6 [1]: in a very similar fashion as HEKTRPC3-YFP cells
- [Ca2+]i response in TRPC6-expressing cells (TRPC6): remained unaffected
